The values that follow come from US11059778B2, “Cannabinoid receptor CB2 ligand 4-(aminomethyl)-N, N-dialkylanilines” (UNIVERSITY OF PITTSBURGH—OF THE COMMONWEALTH SYSTEM OF …, priority 2015, dated 2021).

Experiment [1] concerns the target T1, CHO cells expressing human CB2 receptors (Homo sapiens, UniProt P34972).
T1 construct: expressed in transfected cells; host or cells: CHO cells, stably transfected
In words: cell-based LANCE cAMP assay. The settings on record: forskolin-stimulated, RO-20-1724 present, FIG. 4. How it is done: FIG. 4 relates to cAMP Assay Results. LANCE signal of CB2 ligands. Stably transfected CHO cells expressing human CB2 receptors were utilized to carry out the LANCE cAMP assay. […] Data is mean±SEM of all experiments of two or more performed in triplicate.
(§1) The antibodies are labeled with Alexa Fluor dye that is sensitive to energy emissions. Briefly, the cell-based LANCE cAMP assays were performed on 384-well ProxiPlates using CHO cells stably expressing the CB2 receptors at density of 2×10^3 cells per well in 5 μL of RPMI-1640 medium (Gibco Laboratories, Grand Island, N.Y.) containing 1% dialyzed FBS, 25 mM HEPES, […], and 200 μg/ml of […]. After incubation overnight, 2.5 μL of cAMP antibody and RO20-1724 (a phosphodiesterase inhibitor) in stimulation buffer (DPBS 1×, containing 0.1% BSA) was added to each well, followed by the addition of 2.5 μL of the compound plus the forskolin complex (an adenyl cyclase activator). After incubation at room temperature for 45 minutes, 10 μL of detection buffer was added into each well. The plate was then incubated at room temperature for 1 hour. The plate was then measured in a Synergy H1 hybrid reader (BioTek) with excitation at 340 nm and emission at 665 nm. The results represent at least two independent experiments each in triplicates. EC50 values were determined by nonlinear regression dose-response curve (GraphPad Prism 5).
as §1, with “Cyclic AMP levels were measured by performing the cell-based LANCE cAMP-384 kit assay (PerkinElmer) as previously described 13-14. The assay is based on the competition between the europium-labeled cAMP tracer complex and sample cAMP for binding sites on cAMP-specific antibodies. The antibodies” for “The antibodies”
The LANCE cAMP assay was carried out to measure the functional activities of our synthesized CB2 selective ligands as previously described 14. Briefly, the assay was performed on 384-well plates using CHO cells stably expressing CB2 receptors in the presence of phosphodiesterase inhibitor, RO-20-1724 and adenyl cyclase activator, forskolin.
A general note: TR-FRET usually uses a lanthanide donor and a delayed reading to cut background.

The next experiment deals with T2, human CB2 receptors (Homo sapiens, UniProt P34972).
T2 construct: expressed in transfected cells
T2 sequence (P34972 whole entry): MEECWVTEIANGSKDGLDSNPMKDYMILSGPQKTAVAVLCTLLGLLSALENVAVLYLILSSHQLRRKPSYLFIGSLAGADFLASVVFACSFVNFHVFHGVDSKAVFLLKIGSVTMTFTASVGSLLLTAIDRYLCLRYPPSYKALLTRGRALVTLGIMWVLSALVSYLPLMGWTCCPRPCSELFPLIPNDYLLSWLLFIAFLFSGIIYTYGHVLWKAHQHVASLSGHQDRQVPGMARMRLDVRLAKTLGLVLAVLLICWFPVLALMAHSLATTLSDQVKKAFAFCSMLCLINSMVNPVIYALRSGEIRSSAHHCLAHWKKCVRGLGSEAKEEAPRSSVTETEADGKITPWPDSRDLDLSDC
In words: [3H]CP-55,940 radioligand competition binding assay, CB2. The settings on record: for pKi: CHO cell membranes, [3H]CP-55,940 displacement. How it is done: (§2) Binding assay. The bioassay is carried out using the Perkin Elmer 96-well Top Counter. This bioassay is also known as a competition binding assay and the biological evaluation is to determine the CB receptor binding affinity (Ki) of the screened ligands by displacing [^3H]-CP-55940 (or other radioligands). The brief procedure is given below.
(§3) Perkin Elmer 96-well TopCounter is used at PMLSC and in our laboratory to determine the CB receptor binding affinity (Ki) of the in-silico screened ligands by displacing [^3H]-CP-55,940 (or other radioligands). In competition binding experiments, the tested compound dilutions are carried out in triplicate in TME buffer (25 mM Tris, 5 mM MgCl2, 1 mM EDTA) containing 0.1% (w/v) fatty acid free bovine serum albumin (BSA), pH 7.4. Various concentrations of the tested compound are added in the same volume to 0.5 nM [^3H]CP-55,940. TME buffer and cell membrane preparations expressing CB receptors (2.5 μg per well) are added to a final volume of 200 μL. For the saturation binding experiments, varying concentrations of [^3H]CP-55,940 (0.05-1.5 nM) with or without 2 μM of unlabeled ligands (CP-55,940 or WIN-55,212-2) are incubated with the receptor membrane preparations to determine Kd and nonspecific binding. After the binding suspensions are incubated at 30° C. for 1 hr, the reaction is terminated by rapid filtration through microfiltration plates coated with 0.5% polyethylenimine (Unifilter GF/B filterplate, PerkinElmer) followed by 5 washes with ice cold TME buffer containing 0.5% BSA on a Packard Filtermate Harvester (PerkinElmer). The plates are then dried overnight and 30 μl MicroScint 0 scintillation cocktail are added to each well of the dried filter plates. Then the bound radioactivity is counted using a Perkin Elmer 96-well TopCounter. The Ki is calculated by using nonlinear regression analysis (Prism 5; GraphPad Software Inc., San Diego, Calif.), with the Kd values for [^3H]CP-55,940 determined from saturation binding experiments. This assay is used for determining binding affinity parameters (Ki) of ligand-receptor interactions for the CB receptor.
(§4) The affinities of the synthesized ligands were determined in radioligand binding studies at human CB1 and CB2 receptors using [3H](—)-cis-3-[2-hydroxy-4-(1,1 dimethylheptyl)phenyl]-trans-4-(3-hydroxypropyl) cyclohexanol (CP55,940) as a CB receptor radioligand. As a source for human CB1 and CB2 receptors, membrane preparations of Chinese hamster ovary (CHO) cells stably expressing the respective receptor subtype were utilized (50 μg of protein/vial). CB2 selective ligand SR144528 (CB2 inverse agonist) and CB1 ligand SR141716 (CB1 inverse agonist) were used as positive controls, respectively, along with the tested compounds in bioassays experiments. Only compounds with high CB2 receptor binding potency was chosen to carry out the CB1 binding assay. CB ligand competition binding assay was carried out as described previously in Gertsch, J., et al., Beta-caryophyllene is a dietary cannabinoid. Proc Natl Acad Sci USA 2008, 105 (26), 9099-104. Briefly, non-radioactive (or cold) ligands (synthesized derivatives and reference ligands) were diluted in a binding buffer (50 mM Tris-HCl (pH 7.4), 5 mM MgC12, 2.5 mM EGTA, and 0.1% (w/v) fatty acid free BSA), supplemented with 10% dimethyl sulfoxide and 0.4% methyl cellulose. Each assay plate well contained a total of 200 μL of reaction mixture composed of 5 μg of CB1 (or 2.5 μg CB2) membrane protein, labeled [3H]-CP-55,940 ligand at a final concentration of 2.5 nM, and the unlabeled ligand at its varying dilutions as stated above. Plates were incubated at 30° C. for 1 hour with gentle shaking.
(§5) The reaction was terminated by rapid filtration through Unifilter GF/B filter plates using a Unifilter Cell Harvester (PerkinElmer). After the plate was allowed to dry overnight, 30 μL MicroScint-0 cocktail (PerkinElmer) was added to each well, and the radioactivity was counted using a PerkinElmer TopCounter. […]
On the technique in general: Loss of bound radioactivity is the signal in a displacement assay; it reports binding, not function.

The target of the next experiment is T3, human CB1 receptors (Homo sapiens, UniProt P21554).
T3 construct: expressed in transfected cells
T3 sequence (P21554 whole entry): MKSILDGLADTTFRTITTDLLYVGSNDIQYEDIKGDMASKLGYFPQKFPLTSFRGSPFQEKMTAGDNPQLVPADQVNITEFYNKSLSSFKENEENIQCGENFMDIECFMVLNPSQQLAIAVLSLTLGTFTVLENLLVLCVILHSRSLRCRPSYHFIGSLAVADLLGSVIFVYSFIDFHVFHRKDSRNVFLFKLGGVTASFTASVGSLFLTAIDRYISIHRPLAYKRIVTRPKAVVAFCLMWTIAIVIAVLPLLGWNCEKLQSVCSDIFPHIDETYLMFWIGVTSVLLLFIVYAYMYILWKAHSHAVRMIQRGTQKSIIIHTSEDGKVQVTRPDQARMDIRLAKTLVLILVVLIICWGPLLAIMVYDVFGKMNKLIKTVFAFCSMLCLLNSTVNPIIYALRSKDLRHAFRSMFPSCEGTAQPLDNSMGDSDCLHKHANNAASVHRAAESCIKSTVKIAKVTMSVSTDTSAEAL
In words: [3H]CP-55,940 radioligand competition binding assay, CB1. The settings on record: CHO cell membranes, [3H]CP-55,940 displacement. Here is the method: as §2, §3, §4, §5

pKi: −log10 of the molar value.

T1 sequence (P34972 whole entry): as the sequence (P34972 whole entry) above

On to `CCCCCCC(C)(C)c1ccc([C@@H]2C[C@H](O)CC[C@H]2CCCO)c(O)c1` [CP55940, (—)-cis-3-[2-hydroxy-4-(1,1 dimethylheptyl)phenyl]-trans-4-(3-hydroxypropyl) cyclohexanol, reference compound], for which the “CB2 functional activity (LANCE cAMP signal)” value in experiment [1] was “inhibit cAMP production”.

In general, pKi refers to −log10 of the Ki, conventionally taken in molar units. A higher pKi goes with a low Ki. With `CCN(CC)c1ccc(CN(Cc2cccnc2)S(=O)(=O)c2ccc3ccccc3c2)cc1` [Compound 24, N-(4-(diethylamino)benzyl)-N-(pyridin-3-ylmethyl)naphthalene-2-sulfonamide], at human CB2 receptors, the “SI: selectivity index for CB2, calculated as Ki(CB1)/Ki(CB2) ratio” value was 14 and the pKi is 6.06. The molecule further had a pKi on human CB1 receptors of 4.92.

Consider `CCN(CC)c1ccc(CN(Cc2cccnc2)S(=O)(=O)c2ccc(-c3ccccc3)cc2)cc1` [Compound 25, N-(4-(diethylamino)benzyl)-N-(pyridin-3-ylmethyl)-[1,1′-biphenyl]-4-sulfonamide], for which, at human CB2 receptors, the “SI: selectivity index for CB2, calculated as Ki(CB1)/Ki(CB2) ratio” value is 21 and the pKi was 6.02. Moreover, the pKi on human CB1 receptors is under 4.70.

For `CCN(CC)c1ccc(CN(Cc2ccc3c(c2)OCO3)S(=O)(=O)/C=C/c2ccccc2)cc1` [Compound 29, (E)-N-(benzo[d][1,3]dioxol-5-ylmethyl)-N-(4-(diethylamino)benzyl)-2-phenylethene-1-sulfonamide], on human CB2 receptors, the “SI: selectivity index for CB2, calculated as Ki(CB1)/Ki(CB2) ratio” value was 3 and the pKi was 6.42. This molecule also showed a pKi on human CB1 receptors of 5.94.

`CCN(CC)c1ccc(CN(Cc2ccc3c(c2)OCO3)S(=O)(=O)c2ccc(C=O)cc2)cc1` [Compound 30, N-(benzo[d][1,3]dioxol-5-ylmethyl)-N-(4-(diethylamino)benzyl)-4-formylbenzenesulfonamide]: on human CB2 receptors, the “SI: selectivity index for CB2, calculated as Ki(CB1)/Ki(CB2) ratio” value was 1 and the pKi is 5.73. In addition, the pKi on human CB1 receptors was 5.56.

Consider `CCN(CC)c1ccc(CN(Cc2ccc3c(c2)OCO3)C(=O)c2cccs2)cc1` [Compound 32, N-(benzo[d][1,3]dioxol-5-ylmethyl)-N-(4-(diethylamino)benzyl)thiophene-2-carboxamide], for which, on human CB2 receptors, the “SI: selectivity index for CB2, calculated as Ki(CB1)/Ki(CB2) ratio” value is listed as 2 and the pKi is 6.24. In addition, the pKi at human CB1 receptors is 6.14.

On to `CCCCCN(Cc1ccc(N(CC)CC)cc1)S(=O)(=O)/C=C/c1ccccc1` [Compound 37, (E)-N-(4-(diethylamino)benzyl)-N-pentyl-2-phenylethene-1-sulfonamide], for which, on human CB2 receptors, the “SI: selectivity index for CB2, calculated as Ki(CB1)/Ki(CB2) ratio” value was 10 and the pKi was 6.29. At human CB1 receptors, the pKi was 5.28.

In the case of `CCCCCN(Cc1ccc(N(CC)CC)cc1)S(=O)(=O)c1ccc(C=O)cc1` [Compound 38, N-(4-(diethylamino)benzyl)-4-formyl-N-pentylbenzenesulfonamide], on human CB2 receptors, the “SI: selectivity index for CB2, calculated as Ki(CB1)/Ki(CB2) ratio” value is reported as 3 and the pKi is 6.18. This molecule gave a pKi on human CB1 receptors of 5.75.

On to `CCCCCN(Cc1ccc(N(CC)CC)cc1)C(=O)c1cnc2ccccc2n1` [Compound 39, N-(4-(diethylamino)benzyl)-N-pentylquinoxaline-2-carboxamide], for which, on human CB2 receptors, the “SI: selectivity index for CB2, calculated as Ki(CB1)/Ki(CB2) ratio” value is listed as 1 and the negative logarithm of the Ki (pKi) was 5.73. In addition, the pKi on human CB1 receptors was 5.73.

As for `CCCCCN(Cc1ccc(N(CC)CC)cc1)C(=O)c1cccs1` [Compound 40, N-(4-(diethylamino)benzyl)-N-pentylthiophene-2-carboxamide], at human CB2 receptors, the “SI: selectivity index for CB2, calculated as Ki(CB1)/Ki(CB2) ratio” value is given as 7 and the pKi was 6.44. This molecule gave a pKi at human CB1 receptors of 5.61.

Take SR-144,528 [reference compound]: the “CB2 functional activity (LANCE cAMP signal)” value in experiment [1] was “inverse agonists”.
